Experimental data from US11679104B2, “Compositions and methods of enhancing the homing and/or engraftment of hematopoietic cells in the central nervous system” (Duke University, priority 2017, dated 2023).
“Also recorded” adds a separate entry of the source.

Tested on: microglia
Experiment: BMT with UBC-GFP bone marrow followed by PLX5622 chow: beMφ engraftment into the brain
Type: in vivo, mice
Conditions: for GFP+ beMφ engraftment in the brain: 1 week recovery, 6 weeks standard chow
From the text: Mice were γ-irradiated with a lethal dose of 1000 rad. Four hours post irradiation, mice were intravenously injected with 5×10^6 bone marrow cells. Mice were given water supplemented with trimethoprim-sulfamethoxazole for two weeks and monitored daily for the first 4 days. A lead shield was placed over the head during irradiation in some experiments, as indicated.
To determine transcriptional and morphological changes of microglia and beMφ to an insult, mice were given a peripheral LPS challenge. Mice were first irradiated and given BMT with UBC-GFP bone marrow. To target microglia, head shielding was applied during irradiation in some mice. After 1 week of recovery, mice were treated with PLX 5622 for 2 weeks to deplete the brain macrophage niche then placed on standard chow for 6 weeks. Mice were injected with 50 μg LPS or saline (i.p.). 6 hours later, brains were removed and macrophages sorted by MACS on CD11B beads as described above.
We utilized the Csf1r inhibitor PLX5622 in chow, to eliminate irradiation-damaged, yet still viable, microglia. Mice were given BMT with UBC-GFP bone marrow with or without head covering during irradiation, followed by 1 week of recovery, 2 weeks of chow containing PLX5622, and finally 6 weeks of recovery on standard chow.
Our third model (see Example 2) was designed to take advantage of the synergistic effect on engraftment we had observed with the combination of CNS irradiation and Csf1r deletion in microglia. Instead of Csf1r deletion using our genetic model, we utilized the Csf1r inhibitor PLX5622 in chow, to eliminate the irradiation-damaged, yet still viable, microglia. Mice were given BMT with UBC-GFP bone marrow with or without head covering during irradiation, followed by 1 week of recovery, 2 weeks of chow containing PLX5622, and finally 6 weeks of recovery on standard chow. […] Due to the robust level of engraftment in this model, we sorted GFP+ beMφ from whole body irradiated mice and GFP microglia from head covered mice for RNA-seq. Mice were injected i.p. with saline or LPS 6 hours prior to cell collection. Microglia and beMφ were FACS sorted from mice with or without head-covering, respectively, and then RNA-seq followed by differential expression analysis was performed (n=3 microglia samples, pooled from 3 total mice for each sample, and n=3 beMφ samples, pooled from 3 total mice for each sample; performed once).

## COc1ncc(F)cc1CNc1ccc(Cc2c[nH]c3ncc(C)cc23)c(F)n1 [PLX5622]
BMT with head covering during irradiation, 2 weeks PLX5622 chow
  GFP+ beMφ engraftment in the brain: minimal GFP+ beMφ engraftment
BMT with head covering during irradiation, 2 weeks PLX5622 chow, then 6 weeks standard chow
  repopulation of the CNS with endogenous microglia: effectively repopulated the CNS with endogenous microglia
BMT with whole body irradiation, 2 weeks PLX5622 chow
  GFP+ beMφ engraftment in the brain: robust engraftment of GFP+ beMφ; also recorded: robust engraftment of GFP+ beMϕ
System of BMT and PLX5622 treatment for beMφ engraftment
  repopulation of microglia by beMφ: substantial repopulation of microglia by beMϕ
Used as part of a protocol that clears the microglial niche
  potentiation of engraftment of hematopoietic-derived macrophages into the brains of mice: can potentiate engraftment
